Source: patent publication US5840999A, “Asymmetric benzoxanthene dyes” (The Perkin-Elmer Corporation, priority 1997, dated 1998)

Assays:
Format in all cases: physicochemical
[1] = Stability in concentrated NH4OH at 60° C.; conditions: pure dye isomer 2, concentrated ammonia hydroxide, sealed vials, first order fit
Protocol: (§1) See FIGS. 1 and 2 for the structures of the dyes referred to in the table. All data are reported for pure dye isomer 2. All emission spectra were recorded in 1×TBE buffer at pH 8.4 in dye solutions having an absorbance of 0.05 at λmax Abs (ca. 1×10^-6 M) at room temperature. Photodecomposition rate was determined for equal volumes of the dyes at initially 1 absorption unit at λmax Abs and run in pairs at equal volumes under equal high intensity white light irradiation at 35° C. in 1×TBE buffer pH 8.4. […] (λmax Abs=0.05).

[2] = Photodecomposition under high intensity white light; conditions: pure dye isomer 2, 35° C., 1×TBE buffer pH 8.4, from t1/2 for loss of dye
Protocol: as §1

[3] = Emission spectra of pure dyes (Table II); conditions: pure dye isomer 2, room temperature; for λmax Em: 1×TBE buffer pH 8.4, absorbance 0.05 at λmax Abs; for Width at Half Height: emission spectrum in 1×TBE buffer pH 8.4
[4] = Relative brightness at λmax Em with 514 nm excitation; conditions: pure dye isomer 2, approximately equal concentrations (λmax Abs=0.05)
Protocol: as §1

Q: For “6-carboxy-4,7,2',4',5',7',-hexachlorofluorescein”, which “Stability in NH4OH - t1/2” value [1] is on record?
A: The value was 11 h.

Q: What about the “Relative Photostability” value [2] of the same substance?
A: Its value is 17.

Q: And the “λmax Em” value [3]?
A: The value was 550 nm.

Q: What about the “Width at Half Height” value [3] of the same substance?
A: Its value is 32 nm.

Q: What about the “Relative Brightness” value [4] of the same substance?
A: The value was 2.4.

Q: Which “Stability in NH4OH - t1/2” value [1] does the source give for TAMRA here?
A: Its value is 1.3 h.

Q: And the “λmax Em” value [3]?
A: Its value is 577 nm.

Q: What about the “Width at Half Height” value [3] of the same substance?
A: The value was 39 nm.

Q: And the “Relative Brightness” value [4]?
A: The value was 0.9.
